Consider 24 molecules from ChEMBL document CHEMBL3046300, “Design, synthesis, and biological evaluation of sulfonic acid ester and benzenesulfonamide derivatives as potential CETP inhibitors” (Med Chem Res, 2012).

Experiment [1] has as its target T1, Cholesteryl ester transfer protein (Oryctolagus cuniculus) (UniProt P22687).
T1 sequence (whole entry): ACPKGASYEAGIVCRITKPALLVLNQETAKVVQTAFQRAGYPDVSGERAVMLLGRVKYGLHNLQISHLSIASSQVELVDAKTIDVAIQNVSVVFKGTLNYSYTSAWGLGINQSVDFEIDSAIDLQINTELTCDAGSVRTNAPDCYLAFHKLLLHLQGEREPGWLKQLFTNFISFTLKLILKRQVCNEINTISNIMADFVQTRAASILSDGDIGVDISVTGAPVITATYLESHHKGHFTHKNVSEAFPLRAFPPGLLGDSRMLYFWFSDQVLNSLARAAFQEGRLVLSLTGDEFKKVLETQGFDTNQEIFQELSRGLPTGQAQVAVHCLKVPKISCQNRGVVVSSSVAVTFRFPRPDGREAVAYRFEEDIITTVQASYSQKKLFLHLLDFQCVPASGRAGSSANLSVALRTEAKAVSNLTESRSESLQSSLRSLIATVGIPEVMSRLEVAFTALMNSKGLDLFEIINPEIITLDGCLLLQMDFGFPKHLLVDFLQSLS
Nature of the experiment: Inhibition of Oryctolagus cuniculus (rabbit) CETP-mediated cholesteryl ester transfer at 10 uM after 1 hr by fluorescence assay.

The target of experiment [2] is T2, Cholesteryl ester transfer protein (Oryctolagus cuniculus, UniProt P22687).
T2 sequence (P22687 whole entry): T1 sequence (whole entry)
Nature of the experiment: Inhibition of Oryctolagus cuniculus (rabbit) CETP-mediated cholesteryl ester transfer after 1 hr by fluorescence assay.

On to `Cc1ccc(S(=O)(=O)Oc2ccc(NCc3cccc([N+](=O)[O-])c3)cc2)cc1`, for which the inhibition in experiment [1] was 29.9%.
In experiment [2], `Cc1ccc(S(=O)(=O)N(c2ccc(OCc3cccc(C)c3)cc2)S(=O)(=O)c2ccc(C)cc2)cc1` yielded an IC50 of 3.4 µM. Besides, the inhibition in experiment [1] worked out at 66.9%.
Taken in the same sequence, the figures for `Cc1ccc(S(=O)(=O)N(c2ccc(OCc3ccc(Cl)cc3)cc2)S(=O)(=O)c2ccc(C)cc2)cc1` were 13.2 µM and 37.5%.
Consider `Cc1ccc(S(=O)(=O)Oc2ccc(N(Cc3cccc(C)c3)Cc3cccc(C)c3)cc2)cc1`, for which the inhibition in experiment [1] worked out at 29%.
`Cc1ccc(S(=O)(=O)N(c2ccc(OCc3cccc(C(F)(F)F)c3)cc2)S(=O)(=O)c2ccc(C)cc2)cc1` returned an IC50 in experiment [2] of 11.1 µM. The molecule further registered an inhibition in experiment [1] of 39%.
As for `Cc1ccc(COc2ccc(NS(=O)(=O)c3ccc(C)cc3)cc2)cc1`, the inhibition in experiment [1] was 0%.
`Cc1ccc(S(=O)(=O)Oc2ccc(NCc3cccc(C)c3)cc2)cc1` had an IC50 in experiment [2] of 30.1 µM. The same molecule came in with an inhibition in experiment [1] of 31.3%.
As to `Cc1ccc(S(=O)(=O)Oc2ccc(N(Cc3ccc([N+](=O)[O-])cc3)Cc3ccc([N+](=O)[O-])cc3)cc2)cc1`, the inhibition in experiment [1] was determined as 9.3%.
In the case of `Cc1ccc(CN(Cc2ccc(C)cc2)c2ccc(OS(=O)(=O)c3ccc(C)cc3)cc2)cc1`, the inhibition in experiment [1] stood at 22.3%.
The molecule `Cc1ccc(S(=O)(=O)Nc2ccc(OCc3ccc(Br)cc3)cc2)cc1` displayed an inhibition in experiment [1] of 10.2%.
For `Cc1ccc(S(=O)(=O)Oc2ccc(N(Cc3ccc(Br)cc3)Cc3ccc(Br)cc3)cc2)cc1`, the inhibition in experiment [1] is 17.5%.
Molecule `COc1cccc(COc2ccc(N(S(=O)(=O)c3ccc(C)cc3)S(=O)(=O)c3ccc(C)cc3)cc2)c1` showed an IC50 in experiment [2] of 3.9 µM. This molecule had an inhibition in experiment [1] of 65.3%.
With `Cc1ccc(S(=O)(=O)Nc2ccc(OCc3ccc(C(F)(F)F)cc3)cc2)cc1`, the inhibition in experiment [1] came out at 9.9%.
Still for that read-out and setting: the value for `Cc1ccc(S(=O)(=O)Nc2ccc(OCc3ccc(Cl)cc3)cc2)cc1` was 23%; that for `Cc1ccc(S(=O)(=O)Oc2ccc(N(Cc3cccc(C(F)(F)F)c3)Cc3cccc(C(F)(F)F)c3)cc2)cc1` was 24.7%; that for `Cc1ccc(S(=O)(=O)Oc2ccc(N(Cc3ccc(Cl)cc3)Cc3ccc(Cl)cc3)cc2)cc1` was 24.9%.
The molecule `Cc1ccc(S(=O)(=O)Oc2ccc(N(Cc3cccc(Cl)c3)Cc3cccc(Cl)c3)cc2)cc1` came in with an IC50 in experiment [2] of 28.5 µM. Besides, the inhibition in experiment [1] was 31.9%.
In turn, `Cc1ccc(S(=O)(=O)Nc2ccc(OCc3cccc(Cl)c3)cc2)cc1` showed an inhibition in experiment [1] of 29.6%.
As to `COc1cccc(COc2ccc(NS(=O)(=O)c3ccc(C)cc3)cc2)c1`, the inhibition in experiment [1] worked out at 22.8%.
As for `Cc1ccc(S(=O)(=O)Nc2ccc(OCc3ccc([N+](=O)[O-])cc3)cc2)cc1`, the inhibition in experiment [1] is 15.5%.
In experiment [2], `Cc1ccc(S(=O)(=O)N(c2ccc(OCc3cccc(Cl)c3)cc2)S(=O)(=O)c2ccc(C)cc2)cc1` displayed an IC50 of 10.5 µM. The molecule also gave an inhibition in experiment [1] of 42.6%.
Consider `Cc1ccc(S(=O)(=O)Oc2ccc(N(Cc3cccc([N+](=O)[O-])c3)Cc3cccc([N+](=O)[O-])c3)cc2)cc1`, for which it took 29.7 µM to reach half-maximal inhibition in experiment [2] (IC50). The inhibition in experiment [1] is 31.4%.
Turning to `Cc1ccc(S(=O)(=O)Oc2ccc(N(Cc3cccc(Br)c3)Cc3cccc(Br)c3)cc2)cc1`, in experiment [1], the inhibition worked out at 23.1%.
For the molecule `Cc1ccc(S(=O)(=O)Oc2ccc(NCc3cccc(Br)c3)cc2)cc1`, the inhibition in experiment [1] is 16.1%.
